Laboratory results published in patent publication US8071640B2, “Urea oligomers, their preparation process and pharmaceutical compositions containing them” (Centre National de la Recherche Scientifique, priority 2001, dated 2011).
Read-outs that look alike come from different tables or passages of the source.

What was measured:
erythrocytes = test: Hemolysis test; format: cell-based, monkey (macaque); conditions: 100 μg per ml of suspension (positive control); macaque erythrocytes, one hour at 37° C.
Description: A compound acting on the membranes of bacteria can potentially disturb the membranes of mammalian cells. The red blood cells or erythrocytes serves as a model of eukaryotic cells where the degree of membrane permeation is easily evaluated by measuring the quantity of hemoglobin released through the pores of the embrittled membranes and the concentration of which is directly proportional to the optical density at 450 nm.
The erythrocytes are prepared from freshly sampled monkey blood (macaque). The heparinized blood is centrifuged and washed three times with cold PBS and resuspended at 10% (v/v) in PBS. 10 μl of an aqueous solution of the products to be tested are added to 90 μl of suspension of red blood cells. The erythrocytes are incubated for one hour at 37° C. The suspension is centrifuged in order to recover the supernatant which is more or less red depending on the degree of hemolysis. The concentration of hemoglobin released in the supernatant is measured by the optical density at 450 nm. In the negative control the red blood cells are incubated in the absence of product and show an OD of 0.100% hemolysis is obtained with 100 μg cetylpyridinium chloride per ml of suspension. The degree of hemolysis is evaluated with respect to the positive control for the different concentrations of the products tested.

Micrococcus luteus = format: cell-based
Description: (§1) The compounds tested all form part of the polyurea class and were obtained in the laboratory by chemical route. Tests for the inhibition of the growth of bacteria and fungi were carried out in liquid tests. The specific activity of each molecule is expressed by the minimal inhibitory concentration on the growth of the bacteria and/or fungi, called MIC. The MIC is a value specific to each compound and varies as a function of the organisms tested. It should be noted that the MIC values follow a logarithmic progression, which is due to a two-by-two dilution of the compounds tested in a series of tests. The molecules tested were presented in the form of salts which are soluble in water and thus the culture medium of the microorganisms.
(§2) For carrying out the tests, 96-well plates were used. Each well contains 90 μl of a suspension of bacteria diluted in PB medium (Poor Broth, Difco) in order to have a final concentration of 1 mOD. 10 μl of compound in solution in sterile water at concentrations ranging from 1 mg/ml to 2 μg/ml are added to the tests. The plates are placed under stirring at 29° C. for 24 hours. The growth of the bacteria is measured by measuring the turbidity of the culture medium and measuring the OD at 595 nm. The value of the MIC corresponds to the concentration of the substances to be tested where no growth of bacteria is noted (OD=0).

Salmonella cloacae = format: cell-based
Description: as §1, §2

E. coli D363 = format: cell-based
Description: as §1, §2

Staphylococcus aureus = format: cell-based; conditions: 24 h
Description: as §1, §2

Pseudomonas aeruginosa = format: cell-based
Description: as §1, §2

Neurospora crassa = format: cell-based
Description: as §1, with “microorganisms. The antifungal tests are carried out in similar fashion with ½ PDB (Potato dextrose broth, Difco) as culture medium and 10,000 spores per ml of culture. An optical control under a reverse microscope is necessary in the case of the fungi in order to evaluate the formation of the mycelia of the filamentous fungi (Aspergillus fumigatus, Neurospora crassa). The CMC is determined after culture for 48 hours at 29° C. and corresponds to the concentration where no formation of mycelium is observed.” for “microorganisms.”

Aspergillus fumigatus = format: cell-based
Description: as §1, with “microorganisms. The antifungal tests are carried out in similar fashion with ½ PDB (Potato dextrose broth, Difco) as culture medium and 10,000 spores per ml of culture. An optical control under a reverse microscope is necessary in the case of the fungi in order to evaluate the formation of the mycelia of the filamentous fungi (Aspergillus fumigatus, Neurospora crassa). The CMC is determined after culture for 48 hours at 29° C. and corresponds to the concentration where no formation of mycelium is observed.” for “microorganisms.”

CCCCCCCCCCCCCCCC[n+]1ccccc1 [cetylpyridinium chloride]
hemolysis (erythrocytes): 100%

H-YLVFKAVY-NH2 [Peptide L (control), H-Tyr-Leu-Val-Phe-Lys-Ala-Val-Tyr-NH2]
Minimum inhibitory concentration (Micrococcus luteus; 24 h): 2.6 µM | Minimum inhibitory concentration (Micrococcus luteus; Micrococcus luteus, PB medium, 24 hours at 29° C.): 3.8 µg/mL | Minimum inhibitory concentration (Salmonella cloacae; 24 h): 2.6 µM | Minimum inhibitory concentration (Salmonella cloacae; Salmonella cloacae, PB medium, 24 hours at 29° C.): 3.8 µg/mL | Minimum inhibitory concentration (E. coli D363; D363, 24 h): 2.6 µM | Minimum inhibitory concentration (E. coli D363; E. coli D363, PB medium, 24 hours at 29° C.): 3.8 µg/mL | Minimum inhibitory concentration (Staphylococcus aureus): >121 µg/mL | Minimum inhibitory concentration (Pseudomonas aeruginosa; 24 h): 82 µM | Minimum inhibitory concentration (Pseudomonas aeruginosa; Pseudomonas aeruginosa, PB medium, 24 hours at 29° C.): 121 µg/mL | Minimum inhibitory concentration (Neurospora crassa; 48 h): 20 µM | Minimum inhibitory concentration (Neurospora crassa; Neurospora crassa, ½ PDB, 10,000 spores per ml, 48 hours at 29° C.): 30 µg/mL | Minimum inhibitory concentration (Aspergillus fumigatus; 48 h): 82 µM | Minimum inhibitory concentration (Aspergillus fumigatus; Aspergillus fumigatus, ½ PDB, 10,000 spores per ml, 48 hours at 29° C.): 121 µg/mL
